The numbers were not newly measured in patent US20090176744A1, “Deuterated fingolimod” (CoNCERT Pharmaceuticals, Inc., priority 2007, published 2009), which cites them from elsewhere.

SMILES strings stand for the structures.

For data set [1] the following is noted: renal transplant patients; reversible upon cessation of treatment (Tedesco-Silva 2004).
For data set [2] the following is noted: general finding of cited clinical studies (Kahan 2003; Budde 2002; Ferguson 2003).

Turning to `CCCCCCCCc1ccc(CCC(N)(CO)CO)cc1.Cl` [fingolimod, 2-amino-2-[2-(4-octylphenyl)ethyl]-1,3-propanediol hydrochloride], the heart rate result in data set [1] was “mild and transient reduction in heart rate”. The safety and tolerability entry in data set [2] is “safe and well-tolerated”.
